Several values for one entry are separate records, joined by “and”; a condition that tells them apart may be missing. Identical values can stand only once. Counter-ions that a name gives are not always drawn.
Legend:
[1] = molecular target: T1, human neurokinin-3 receptor (Homo sapiens, UniProt P29371); assay: Binding affinity to human NK-3 receptor expressed in CHO cells (inhibition of [125I]-[Me-Phe7]-NKB or [3H]-Senktide binding); conditions: human neurokinin-3 receptor expressed in CHO cell lines; read-out: Binding affinity, Ki (nM) hNK-3-CHO
T1 construct: expressed in transfected cells; host or cells: CHO
T1 sequence (P29371 1-465): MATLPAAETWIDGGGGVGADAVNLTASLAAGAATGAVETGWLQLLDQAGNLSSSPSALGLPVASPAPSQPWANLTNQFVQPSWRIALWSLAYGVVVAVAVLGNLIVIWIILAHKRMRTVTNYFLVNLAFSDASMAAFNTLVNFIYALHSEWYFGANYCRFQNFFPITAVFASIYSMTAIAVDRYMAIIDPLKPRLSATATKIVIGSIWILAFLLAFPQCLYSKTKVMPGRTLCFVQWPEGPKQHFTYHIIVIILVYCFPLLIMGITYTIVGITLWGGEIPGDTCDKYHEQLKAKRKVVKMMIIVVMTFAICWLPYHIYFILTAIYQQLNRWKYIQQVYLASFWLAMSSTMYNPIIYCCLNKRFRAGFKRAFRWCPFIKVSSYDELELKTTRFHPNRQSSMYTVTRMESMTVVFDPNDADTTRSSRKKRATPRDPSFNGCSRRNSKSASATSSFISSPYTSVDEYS
Experimental: The activity of the compounds of the present invention, as NK3 ligands, is determined by their ability to inhibit the binding of the radiolabelled NK3 ligands, [^125I]-[Me-Phe^7]-NKB or [^3H]-Senktide, to guinea-pig and human NK3 receptors (Renzetti et al, 1991, Neuropeptide, 18, 104-114; Buell et al, 1992, FEBS, 299(1), 90-95; Chung et al, 1994, Biochem. Biophys. Res. Commun., 198(3), 967-972).
The binding assays utilized allow the determination of the concentration of the individual compound required to reduce by 50% the [^125I]-[Me-Phe^7]-NKB and [^3H]-Senktide specific binding to NK3 receptor in equilibrium conditions (IC50).
Binding assays provide for each compound tested a mean IC50 value of 2-5 separate experiments performed in duplicate or triplicate. […] The NK3-antagonist activity of the compounds of the present invention is determined by their ability to inhibit senktide-induced contraction of the guinea-pig ileum (Maggi et al, 1990, Br. J. Pharmacol., 101, 996-1000) and rabbit isolated iris sphincter muscle (Hall et al., 1991, Eur. J. Pharmacol., 199, 9-14) and human NK3 receptors-mediated Ca^++ mobilization (Mochizuki et al, 1994, J. Biol. Chem., 269, 9651-9658). Guinea-pig and rabbit in-vitro functional assays provide for each compound tested a mean KB value of 3-8 separate experiments, where KB is the concentration of the individual compound required to produce a 2-fold rightward shift in the concentration-response curve of senktide. Human receptor functional assay allows the determination of the concentration of the individual compound required to reduce by 50% (IC50 values) the Ca^++ mobilization induced by the agonist NKB. In this assay, the compounds of the present invention behave as antagonists.

[2] = molecular target: T2, human neurokinin-2 receptor (Homo sapiens, UniProt P21452); assay: Binding affinity to human NK-2 receptor expressed in CHO cells (inhibition of [125I]-NKA or [3H]-NKA binding); conditions: human neurokinin-2 receptor expressed in CHO cell lines; read-out: Binding affinity, Ki (nM) hNK-2-CHO
T2 construct: expressed in transfected cells; host or cells: CHO
T2 sequence (P21452 1-398): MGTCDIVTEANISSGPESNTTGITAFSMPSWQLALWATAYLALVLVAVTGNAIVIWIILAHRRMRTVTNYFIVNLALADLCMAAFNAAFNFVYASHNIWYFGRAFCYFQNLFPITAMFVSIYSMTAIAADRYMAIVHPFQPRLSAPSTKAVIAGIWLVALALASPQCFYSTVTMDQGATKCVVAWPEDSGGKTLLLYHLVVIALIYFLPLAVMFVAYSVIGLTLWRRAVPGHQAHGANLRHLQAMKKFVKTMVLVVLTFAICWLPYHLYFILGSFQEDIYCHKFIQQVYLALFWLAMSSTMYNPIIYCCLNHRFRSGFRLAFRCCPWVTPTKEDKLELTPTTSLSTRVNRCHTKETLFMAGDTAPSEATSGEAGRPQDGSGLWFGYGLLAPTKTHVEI
Experimental: The activity of the compounds of the present invention, as NK-2 ligands, is determined by their ability to inhibit the binding of the radiolabelled NK-2 ligands, [^125I]-NKA or [^3H]-NKA, to human NK-2 receptors (Aharony et al, 1992, Neuropeptide, 23, 121-130).
The binding assays utilized allow the determination of the concentration of the individual compound required to reduce by 50% the [^125I]-NKA and [^3H]-NKA specific binding to NK2 receptor in equilibrium conditions (IC50).
Binding assays provide for each compound tested a mean IC50 value of 2-5 separate experiments performed in duplicate or triplicate. […] The NK-2-antagonist activity of the compounds of the present invention is determined by their ability to inhibit human NK-2 receptor-mediated Ca^++ mobilization (Mochizuki et al, 1994, J. Biol. Chem., 269, 9651-9658). Human receptor functional assay allows the determination of the concentration of the individual compound required to reduce by 50% (IC50 values) the Ca^++ mobilization induced by the agonist NKA. In this assay, the compounds of the present invention behave as antagonists.

Compound	Ki [1] [nM]	melting point	Ki [2] [nM]
CC[C@H](NC(=O)c1c(CN2CC[C@H](O)C2)c(-c2ccccc2)nc2ccccc12)c1ccccc1 [Example 32, (S)-N-(α-ethylbenzyl)-3-[(3-(S)-hydroxy)pyrrolidin-1-ylmethyl]-2-phenylquinoline-4-carboxamide]	3.2	90 to 95 °C	68.8
CC[C@H](NC(=O)c1c(CCN2CCN(c3ccc(Cl)cc3)CC2)c(-c2ccccc2)nc2ccccc12)c1ccccc1 [Example 27]	2.8	100 to 110 °C (dec.)	53.5
CC[C@H](NC(=O)c1c(CCN2CCN(c3ccc(F)cc3)CC2)c(-c2ccccc2)nc2ccccc12)c1ccccc1 [Example 30]	3	96 to 98 °C	27.1
CC[C@H](NC(=O)c1c(CN2CCC3(CCCC3)CC2)c(-c2ccccc2)nc2ccccc12)c1ccccc1 [Example 31]	3.9	156 to 160 °C	143
CC[C@H](NC(=O)c1c(CN2CCCCC2)c(-c2ccccc2)nc2ccccc12)c1ccccc1 (as salt: HCl) [Example 8]	–	140 °C (dec.)	–
CC[C@H](NC(=O)c1c(CN2CCN(C)CC2)c(-c2ccccc2)nc2ccccc12)c1ccccc1 [Example 11]	4	–	66.8
CC[C@H](NC(=O)c1c(CCN2CCN(c3cccc(C(F)(F)F)c3)CC2)c(-c2ccccc2)nc2ccccc12)c1ccccc1 [Example 22]	2.9	115 to 117 °C	44.9
CC[C@H](NC(=O)c1c(CN2CCNCC2)c(-c2ccccc2)nc2ccccc12)c1ccccc1 [Example 28, (S)-N-(α-Ethylbenzyl)-3-[(piperazin-1-yl)methyl]-2-phenylquinoline-4-carboxamide]	–	94 to 98 °C and 94.5 to 98 °C	–
CC[C@H](NC(=O)c1c(CN2CC[C@@H](O)C2)c(-c2ccccc2)nc2ccccc12)c1ccccc1 [Example 33]	2.9	100 to 105 °C	64.8
CC[C@H](NC(=O)c1c(CCN2CCN(c3ccccc3)CC2)c(-c2ccccc2)nc2ccccc12)c1ccccc1 (as salt: HCl) [Example 12]	–	206 °C (dec.)	–
CC[C@H](NC(=O)c1c(CN2CCN(C)CC2)c(-c2ccccc2)nc2ccccc12)c1ccccc1 (as salt: HCl) [Example 11]	–	195 to 198 °C	–
CC[C@H](NC(=O)c1c(CCN2CCN(c3ccc(C)cc3)CC2)c(-c2ccccc2)nc2ccccc12)c1ccccc1 [Example 29]	2.5	93 to 96 °C	35.3
CC[C@H](NC(=O)c1c(CCCN2CCN(c3ccccc3)CC2)c(-c2ccccc2)nc2ccccc12)c1ccccc1 (as salt: HCl) [Example 13]	–	180 °C (dec.)	–
CC[C@H](NC(=O)c1c(CN2CCN(C(C)C)CC2)c(-c2ccccc2)nc2ccccc12)c1ccccc1 (as salt: HCl) [Example 20]	–	178 to 182 °C	–

Results, then the compound that gave them:

Ki [1] [nM]	melting point	Ki [2] [nM]	Compound
0.9	182 to 183 °C	6.4	CC[C@H](NC(=O)c1c(CCCN2C(=O)c3ccccc3C2=O)c(-c2ccccc2)nc2ccccc12)c1ccccc1 [Example 21]
0.9	100 to 105 °C	3.3	CC[C@H](NC(=O)c1c(CCCN2CCN(c3ccc(Cl)cc3)CC2)c(-c2ccccc2)nc2ccccc12)c1ccccc1 [Example 24]
1.9	–	39	CC[C@H](NC(=O)c1c(CCN2CCN(c3ccccc3)CC2)c(-c2ccccc2)nc2ccccc12)c1ccccc1 [Example 12]
0.8	–	35.6	CC[C@H](NC(=O)c1c(CCN2CCN(C(C)C)CC2)c(-c2ccccc2)nc2ccccc12)c1ccccc1 [Example 39]
1.1	151 to 153 °C	22.2	CC[C@H](NC(=O)c1c(CCCCN2CCN(c3ccccc3)CC2)c(-c2ccccc2)nc2ccccc12)c1ccccc1 [Example 14]
1.7	75 to 78 °C	12.7	CC[C@H](NC(=O)c1c(CN2CCN(CC)CC2)c(-c2ccccc2)nc2ccccc12)c1ccccc1 [Example 36]
0.9	83 °C (dec.)	73.2	CC[C@H](NC(=O)c1c(CN2CCC[C@@H]2CO)c(-c2ccccc2)nc2ccccc12)c1ccccc1 [Example 5]
1.8	–	5.7	CC[C@H](NC(=O)c1c(CN2CCN(C(C)C)CC2)c(-c2ccccc2)nc2ccccc12)c1ccccc1 [Example 20]
0.5	75 to 80 °C	1.5	CC[C@H](NC(=O)c1c(CCCN2CCC(c3ccccc3)CC2)c(-c2ccccc2)nc2ccccc12)c1ccccc1 [Example 25]
0.9	–	24.1	CC[C@H](NC(=O)c1c(CN2CCCCC2)c(-c2ccccc2)nc2ccccc12)c1ccccc1 [Example 8]
0.4	85 °C (dec.)	1.7	CC[C@H](NC(=O)c1c(CN2CCN(Cc3ccccc3)CC2)c(-c2ccccc2)nc2ccccc12)c1ccccc1 [Example 26, (S)-N-(α-ethylbenzyl)-3-[(4-benzylpiperazin-1-yl)methyl]-2-phenylquinoline-4-carboxamide]
2.3	203 to 207 °C	44.6	CC[C@H](NC(=O)c1c(CN2CCC(O)CC2)c(-c2ccccc2)nc2ccccc12)c1ccccc1 [Example 18, (S)-N-(α-Ethylbenzyl)-3-[(4-hydroxypiperidin-1-yl)methyl]-2-phenylquinoline-4-carboxamide]
1.2	167 to 170 °C	65.5	CC[C@H](NC(=O)c1c(CN(C)CCO)c(-c2ccccc2)nc2ccccc12)c1ccccc1 [Example 6]
0.3	–	3.8	CC[C@H](NC(=O)c1c(CCCN2CCN(c3ccccc3)CC2)c(-c2ccccc2)nc2ccccc12)c1ccccc1 [Example 13]
0.8	170 to 173 °C	18.2	CC[C@H](NC(=O)c1c(CN2CCC3(CC2)OCCO3)c(-c2ccccc2)nc2ccccc12)c1ccccc1 [Example 9, (S)-N-(α-ethylbenzyl)-3-[(1,4-dioxa-8-azaspiro[4.5]decan-8-yl)methyl]-2-phenylquinoline-4-carboxamide]
1.2	102 to 105 °C	9.7	CC[C@H](NC(=O)c1c(CCCN2CCN(c3cccc(C(F)(F)F)c3)CC2)c(-c2ccccc2)nc2ccccc12)c1ccccc1 [Example 23]

From US20010012846A1, “Quinoline-4-carboxamide derivatives as NK-2 and NK-3 receptor antagonists” (priority 1997, published 2001)
